Among the data in PubChem BioAssay (NCI) are GI50 and TGI values, retold here.

Test systems include U251 CNS; UACC-257 melanoma; COLO 205 colon; SW-620 colon; OVCAR-4 ovarian; HT29 colon; CCRF-CEM leukemia; HCC-2998 colon; NCI-H460 lung; NCI-H23 lung.
Assay in all cases: inhibition of tumour cell growth, NCI panel, 48 h

Each structure is given as a SMILES string.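 Step 1: Grow cells in 96-well plates. Step 2: Expose to compound for 48 hours at 5 concentrations. Step 3: Interpolate endpoints linearly; if unreached, use highest concentration. Here, GI50 denotes the concentration required for 50% inhibition of growth. TGI: concentration producing complete growth inhibition.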

As for `CC[C@@]1(O)C(=O)NCc2c1cc1n(c2=O)Cc2cc3ccccc3nc2-1`, the GI50 with U251 CNS is 2.39 µM; with UACC-257 melanoma it was 7.95 µM; with COLO 205 colon it was 39.2 µM; with SW-620 colon, 3.39 µM; with OVCAR-4 ovarian it was 35.5 µM; in the assay with HT29 colon it was 9.05 µM. Further, the GI50 was 0.253 µM in the assay on CCRF-CEM leukemia, 74 µM in the assay on HCC-2998 colon, 0.556 µM in the assay on NCI-H460 lung and 1.8 µM with NCI-H23 lung. Further, the TGI in the assay on U251 CNS was greater than 42.8 µM; in the assay on UACC-257 melanoma, greater than 59.1 µM; in the assay with COLO 205 colon, greater than 100 µM; in the assay on SW-620 colon it was greater than 100 µM; in the assay on OVCAR-4 ovarian, greater than 100 µM; with HT29 colon, greater than 93.7 µM. Also, the TGI with HCC-2998 colon is greater than 100 µM; with NCI-H460 lung, greater than 59.2 µM; in the assay with NCI-H23 lung it was 5.86 µM.
Consider `C=C1CCC2C3(C)COC(c4ccc(NC(C)=O)cc4)OC3CCC2(C)C1C/C=C1/C(=O)OCC1O` (centres undefined), for which the GI50 in the assay on U251 CNS is 79 µM; in the assay on UACC-257 melanoma, 6.26 µM; with COLO 205 colon, 4.22 µM; with SW-620 colon it was 64.3 µM; in the assay with OVCAR-4 ovarian, 6.81 µM; in the assay with HT29 colon, 5.35 µM. Moreover, the GI50 in the assay with CCRF-CEM leukemia is 3.08 µM; in the assay with HCC-2998 colon, 7.75 µM; in the assay on NCI-H460 lung, 4.71 µM; with NCI-H23 lung, 5.13 µM. Also, the TGI in the assay with U251 CNS, in the assay on UACC-257 melanoma, with COLO 205 colon, with SW-620 colon, in the assay with OVCAR-4 ovarian and in the assay with HT29 colon was greater than 100 µM throughout. The TGI in the assay on CCRF-CEM leukemia, with HCC-2998 colon, with NCI-H460 lung and with NCI-H23 lung was greater than 100 µM in each case.
As to `Cc1cccc(NC(=O)C(=O)C2C(=O)NC(=O)NC2=O)c1C`, the TGI in the assay on U251 CNS, in the assay on UACC-257 melanoma, in the assay with COLO 205 colon, with SW-620 colon, in the assay with OVCAR-4 ovarian and with HT29 colon was greater than 100 µM each time. For the same molecule, the TGI in the assay with CCRF-CEM leukemia, in the assay on HCC-2998 colon, with NCI-H460 lung and in the assay on NCI-H23 lung was greater than 100 µM each time.
For `COc1ccc(N2CCN(C(=O)c3ccccc3Nc3ccnc(C(F)(F)F)c3)CC2)cc1`, the GI50 was 83.9 µM in the assay on U251 CNS; 20.8 µM in the assay with UACC-257 melanoma; 63 µM in the assay on COLO 205 colon; greater than 100 µM in the assay on SW-620 colon; 22.4 µM in the assay on OVCAR-4 ovarian; 77.1 µM in the assay on HT29 colon. Besides, the GI50 in the assay with CCRF-CEM leukemia was 53.9 µM; in the assay with HCC-2998 colon, greater than 100 µM; in the assay on NCI-H460 lung it was 50.7 µM; with NCI-H23 lung it was 17.3 µM. In addition, the TGI in the assay with U251 CNS, with UACC-257 melanoma, in the assay with COLO 205 colon, with SW-620 colon, in the assay with OVCAR-4 ovarian and in the assay on HT29 colon was greater than 100 µM throughout. Further, the TGI with CCRF-CEM leukemia, in the assay on HCC-2998 colon, with NCI-H460 lung and in the assay with NCI-H23 lung was greater than 100 µM throughout.
Consider `COc1ccc(/C=C/c2c(C(=O)/C=C/c3ccc(Cl)cc3)c(C)nc3ccccc23)cc1`, for which the GI50 with U251 CNS was 1.75 µM; with UACC-257 melanoma it was 2.09 µM; with COLO 205 colon, 2.13 µM; with SW-620 colon, 1.85 µM; in the assay with OVCAR-4 ovarian, 1.75 µM; in the assay with HT29 colon, 1.61 µM. The GI50 with CCRF-CEM leukemia is 2.03 µM; with HCC-2998 colon it was 1.57 µM; with NCI-H460 lung, 2.13 µM; with NCI-H23 lung, 1.39 µM. Moreover, the TGI in the assay with U251 CNS was determined as 3.55 µM; in the assay with UACC-257 melanoma it was 4.55 µM; in the assay with COLO 205 colon, 5.29 µM; in the assay on SW-620 colon, 6.02 µM; in the assay with OVCAR-4 ovarian it was 3.97 µM; in the assay on HT29 colon, 6.05 µM. Moreover, the TGI was greater than 100 µM in the assay with CCRF-CEM leukemia, 3.06 µM with HCC-2998 colon, 5.61 µM with NCI-H460 lung and 3.35 µM in the assay on NCI-H23 lung.
Take `Cc1cc(C)cc(-n2c3nc(=O)n(C)c(=O)c-3nc3ccccc32)c1`: the TGI was determined as 50.5 µM in the assay with U251 CNS; 31.2 µM in the assay on UACC-257 melanoma; 24.8 µM in the assay on COLO 205 colon; 40.7 µM in the assay with SW-620 colon; 41.5 µM in the assay with OVCAR-4 ovarian; 41.3 µM in the assay with HT29 colon. For the same molecule, the TGI came to 61 µM in the assay with CCRF-CEM leukemia, 49.9 µM with HCC-2998 colon, 94.4 µM in the assay on NCI-H460 lung and 39 µM in the assay with NCI-H23 lung.
With `C/C(=C\c1ccc(Cl)cc1)C(C)(C)C(=O)O`, the TGI with U251 CNS, in the assay with UACC-257 melanoma, in the assay on COLO 205 colon, in the assay on SW-620 colon, with OVCAR-4 ovarian and with HT29 colon was greater than 100 µM in each case. Further, the TGI in the assay on CCRF-CEM leukemia, in the assay with HCC-2998 colon, with NCI-H460 lung and in the assay with NCI-H23 lung was greater than 100 µM in each case.
Turning to `CC1(C)N=C(N)N=C(N)N1c1cccc(C#N)c1`, the GI50 with U251 CNS was 0.752 µM; with UACC-257 melanoma it was 11.7 µM; with COLO 205 colon, 31 µM; with SW-620 colon, 0.567 µM; in the assay with OVCAR-4 ovarian, greater than 100 µM; in the assay on HT29 colon, 0.933 µM. The GI50 with CCRF-CEM leukemia is 3.05 µM; in the assay on HCC-2998 colon, 7.11 µM; in the assay on NCI-H460 lung it was 2.8 µM; in the assay on NCI-H23 lung, 5.32 µM. In addition, the TGI in the assay on U251 CNS, in the assay on UACC-257 melanoma, with COLO 205 colon, with SW-620 colon, with OVCAR-4 ovarian and with HT29 colon was greater than 100 µM throughout. In addition, the TGI in the assay with CCRF-CEM leukemia, with HCC-2998 colon, in the assay on NCI-H460 lung and in the assay with NCI-H23 lung was greater than 100 µM throughout.
